Measured values published in patent US12128015B2, “APE/REF1 inhibitors for the treatment of cancer” (Chapman University, priority 2021, dated 2024).
“Also recorded” adds a separate entry of the source. Read-outs that look alike come from different tables or passages of the source.

Assays:
[1] = system: human melanoma A375 and SK-Mel-28 cells; assay: MTT cytotoxicity in human melanoma A375 and SK-Mel-28 cells (Table 1); format: cell-based; conditions: for IC50: read-out: IC50 (50% inhibition of cell survival), MTT assay; for anti-melanoma activity (MTT): in words
From the text: (§1) All the cells were passaged once reaching 70-90% confluence.
(§2) (MTT) metabolized by alive cells.

melanoma cell lines = assay: Toxicity of PNRI-299 in the inventors' tested melanoma cell lines; format: cell-based
[2] = system: A375 metastatic melanoma xenograft; assay: In vivo xenograft melanoma (A375 cells in nude mice)
Protocol: FIG. 4. Compound 2 inhibited the tumor growth of human melanoma in vivo. Metastatic melanoma A375 cells were injected into male nude mice subcutaneously on the flank. Compound 2 was administered i.p. daily at the dose of 5 mg/kg. The growth of the tumor was measured daily, and tumor volume was measured by digital calipers and determined using the formula (mm^3)=[L×(W2)]/2. Tumor growth was presented as a fold of increase in size (mean±SD). *, p<0.05 compared to control (N=7; Compound 2 group, N=5).
The Institutional Animal Care and Use Committee approved all the animal procedures at Chapman University (IACUC #2020-1131). Male nude mice (Nu/Nu) were purchased from Charles River and were housed and maintained in the Chapman University vivarium under pathogen-free conditions. Human A375 metastatic melanoma cells were injected subcutaneously into the mouse's flank (1×10^6 cells per mouse). Three days-post tumor cell injection, mice were randomized into different groups. The treatment group was injected with compound 2 (5 mg/kg/day, i.p.) for 21 days. The growth of the tumors was monitored three times a week and measured using digital Vernier calipers. The size of the tumors was calculated as tumor volume (mm^3)=[L×(W2)]/2. The mice were sacrificed at the end of the experiment.
(§3) Given the limited water solubility, lead compound 2 (in DMSO) was further diluted in normal saline, the drug suspension, and sonicated at room temperature for 15 min. before injection to nude mice. […] The drug suspension was made fresh daily and injected into mice immediately after the compounding.

[3] = system: Hermes 1 melanoblast cells; conditions: 72 h
[4] = HPLC analysis of the drug suspension after compounding; format: physicochemical; conditions: DMSO solution diluted in normal saline, sonicated 15 min at room temperature
Protocol: as §3

[5] = system: Hermes 4A melanoblast cells; assay: MTT cell viability assay, Hermes 4A melanoblast cells; format: cell-based, human; conditions: 72 h treatment
From the text: as §2

AP-1 transactivation = assay: Luciferase assay to determine AP-1 transactivation activities in A375 cells; format: cell-based, human; conditions: for inhibition of H2O2-activated AP-1 transactivation: compound 10 μM
From the text: FIG. 3. Inhibition of AP-1 transcriptional activation in human melanoma A375 cells by compound 2. A375 cells were transfected with an AP-1 luciferase reporter plasmid. […] After treatments, the cells were harvested to determine the luciferase activity, expressed as a fold of control without any treatment. The results normalized by cell numbers represent means±S.D of triplicates. *, p<0.05 compared to control; **, p<0.05 compared to H2O2-treatment.
3×AP1pGL3 (3×AP-1 in pGL3-basic; Addgene plasmid #40342), which contains three canonical AP-1 binding sites (TGACTCA) upstream of a minimal promoter fragment containing a TATA box in the luciferase reporter plasmid pGL3-basic. 3×AP1pGL3 was transfected to human melanoma A375 cells using Lipofectamine 2000 following the manufacturer's instructions (Invitrogen). […]
After different treatments, the cells were rinsed twice with phosphate-buffered saline (PBS). Cells were then scraped from the plates in PBS and pelleted for 4 min at 4° C. in a microcentrifuge at 12,000 rpm. Cell pellets were resuspended in 100 μL luciferase lysis buffer for luciferase assay as described (Promega). Luciferase activity measured in relative light units reflects the AP-1 transcription rate and was detected by a SpectraMax M5 UV VIZ Plate Reader. Cell count was conducted for normalization. All the samples were studied in duplicate, and readings were taken in triplicate. Each experiment was repeated at least two times.

[6] = system: Hermes 3A melanoblast cells; assay: MTT cell viability assay, Hermes 3A melanoblast cells; format: cell-based, human; conditions: 72 h treatment
From the text: as §2

A375 melanoma cells = assay: MTT cell viability assay, A375 melanoma cells; format: cell-based, human; conditions: for cell viability: 1 μM, A375 cells (FIG. 2C), control = vehicle 0.1% DMSO
From the text: as §1, §2

[7] = Phase I trial, cited from earlier work
[8] = system: human breast cancer cells; conditions: collective cell migration; chemo-invasion and colony formation with docetaxel; cited from earlier work
HT1080 cells = conditions: cited from earlier work
Sk-Mel-28 melanoma cells = conditions: read-out: IC50, cell viability; Sk-Mel-28 cells, MTT, 72 h
Protocol: Human malignant melanoma cells (A375, CRL-1619™; Sk-Mel-28, HTB-72™) were purchased from ATCC®. Cells were cultured in Dulbecco's Modified Eagle Medium (DMEM) (ATCC #30-2002) or Eagles' Minimum Essential Medium (EMEM) (ATCC #30-2003) supplemented with 10% fetal bovine serum (FBS) (ATCC #30-2020) at 37° C. in 5% CO2 incubator. All the cells were passaged once reaching 70-90% confluence.

[9] = Water solubility: drug precipitation in the media; format: physicochemical
[10] = 72 h, human melanoma A375 and SK-Mel-28 cells (compound 11: average of the two lines)

## NCCCCCCCCCCCCNC(=O)/C=C/c1cccc(O)c1 [Compound 8, (E)-N-(12-Aminododecyl)-3-(3-hydroxyphenyl) acrylamide]
[1]; Homo sapiens, 72 h
  IC50: > 25000 nM

## N#Cc1cccc(-n2c(=O)n3n(c2=O)C(C(=O)NCc2ccccc2)=CC(=O)C3)c1 [PNRI-299]
Melanoma cell lines
  concentration up to which neither toxicity nor synergistic effects were observed: > 100 µM

## O=C(/C=C/c1ccccc1)NCCCCCCCCCCCCNC(=O)/C=C/c1ccccc1 [Compound 2, (2E,2′E)-N,N′-(Dodecane-1,12-diyl)bis(3-phenylacrylamide)]
[1]; MTT, 72 h
  dose dependence of cytotoxicity: Cytotoxicity is not dose-
[2]; 5 mg/kg i.p. daily, after 21-day treatment, nude mice
  tumor size: 44.7 % of control
[2]; 5 mg/kg i.p. daily, nude mice
  systemic toxicity: without producing any apparent systemic toxicities; also recorded: no significant systemic toxicity observed
[2]; 5 mg/kg i.p., xenograft mouse model
  tumor growth inhibition compared to the control group: 44.7%
[3]; human
  cytotoxicity: more sensitive to compound 2, but the cytotoxicity was not elevated with increasing the concentrations
[4]
  chemical stability after compounding: no evidence of chemical structural change after compounding
[5]
  cytotoxicity: no significant cytotoxicity
AP-1 transactivation; compound 0.5 μM, H2O2 100 μM, 48 h, H2O2 alone 2.3-fold of control
  H2O2-activated AP-1 activity (luciferase): 95.7 % of control
AP-1 transactivation; without H2O2
  inhibition of basal AP-1 dependent transcription: did not display any inhibition
[6]
  cytotoxicity: no significant cytotoxicity

## O=C(/C=C/c1ccccc1)NCCCCCCNC(=O)/C=C/c1ccccc1 [Compound 12, (2E,2′E)-N,N′-(hexane-1,6-diyl)bis(3-phenylacrylamide)]
[1]; Homo sapiens, 72 h
  IC50: > 10000 nM

## O=C(/C=C/c1ccc(O)cc1)NCCCCCCCCCCCCNC(=O)/C=C/c1ccc(O)cc1 [Compound 4]
[1]; [10]
  IC50: > 10000 nM
[1]
  anti-melanoma activity (MTT): significant loss of anti-tumor activity compared to compound 2

## CCCCCCCCC/C(=C\C1=C(C)C(=O)C(OC)=C(OC)C1=O)C(=O)O [Compound E3330]
AP-1 transactivation; H2O2 100 μM, 48 h
  inhibition of H2O2-activated AP-1 transactivation: only reduced the AP-1 activity marginally, which was not statistically significant
A375 melanoma cells
  cell viability: 102.6 % of control
[7]; cancer patients
  patients with disease stabilization for ≥4 cycles: six of nineteen
[7]
  duration of treatment with stable disease, one melanoma patient: 245 days
[8]
  concentration at which inhibitory activity was evident: 50 µM

## O=C(/C=C/c1ccc(O)cc1)NCCCCCCNC(=O)/C=C/c1ccc(O)cc1 [Compound 5, (2E,2′E)-N,N′-(Hexane-1,6-diyl)bis(3-(4-hydroxyphenyl)acrylamide)]
[1]; Homo sapiens, 72 h
  IC50: > 50000 nM
[1]
  anti-melanoma activity (MTT): loss of anti-melanoma activity compared to compound 2

## O=C(O)c1cc2cccc([N+](=O)[O-])c2[nH]1 [CRT0044876]
HT1080 cells; HT1080 cells, CRT0044876 alone
  concentration up to which no toxicity was seen: > 400 µM
HT1080 cells
  concentration at which synergistic enhancement of methyl methanesulphonate cytotoxicity was evident: 200 µM

## O=C(/C=C/c1ccccc1)NCCCCCCCCCCCCNC(=O)/C=C/c1cccc(O)c1 [Compound 9, (E)-N-(12-Cinnamamidododecyl)-3-(3-hydroxyphenyl) acrylamide]
[1]; Homo sapiens, 72 h
  IC50: > 10000 nM
[1]
  anti-melanoma activity (MTT): poor anti-melanoma activity

## NCCCCCCCCCCCCNC(=O)C=Cc1ccccc1 [Compound 10, N-(12-Aminododecyl)cinnamamide]
[1]; Homo sapiens, 72 h
  IC50: > 25000 nM

## O=C(/C=C/c1cccc(O)c1)NCCCCCCCCCCCCNC(=O)/C=C/c1cccc(O)c1 [Compound 7, (2E,2′E)-N,N′-(dodecane-1,12-diyl)bis(3-(3-hydroxyphenyl)acrylamide)]
[1]; Homo sapiens, 72 h
  IC50: > 10000 nM
[1]
  anti-melanoma activity (MTT): significant loss of anti-tumor activity compared to compound 2

## O=C(C=Cc1ccccc1)NCCCCCCCCCCCCNC(=O)/C=C/c1ccc(O)cc1 [Compound 11, (E)-N-(12-Cinnamamidododecyl)-3-(4-hydroxyphenyl) acrylamide]
[1]; [10]
  IC50: 79 ± 13 nM
[1]
  anti-melanoma activity (MTT): potent cytotoxic effect
[3]; read-out: IC50, cell viability, Hermes 1 melanoblast cells, MTT
  IC50: 274 nM
AP-1 transactivation; H2O2 100 μM, 48 h
  inhibition of H2O2-activated AP-1 transactivation: failed to inhibit
Sk-Mel-28 melanoma cells
  IC50: 70 nM
A375 melanoma cells
  cell viability: 19 % of control
A375 melanoma cells; A375 cells, MTT, 72 h
  IC50: 88 nM
[9]
  precipitation concentration relative to compound 2: approximately 8 folds
[9]; compared to compound 2
  water solubility and stability: improved water solubility and stability compared to compound 2
[9]; in the media
  concentration at which drug precipitation was evident: -20 µM
